Data from publication PMC8348686, “The Pharmacological Profile of Second Generation Pyrovalerone Cathinones and Related Cathinone Derivative” (International Journal of Molecular Sciences, 2021).

Legend:
[1] = target: hNET (Homo sapiens, UniProt P23975); test: Transporter binding, N-methyl-[3H]-nisoxetine
Source text: Table 3 Monoamine transporter and receptor binding affinities of pyrovalerone and NEH. | column: hNET / Receptor Binding / Ki ± SD [μM] / N-Methyl-[^3H]-nisoxetine

[2] = target: T1, adrenergic α2A receptor (Homo sapiens, UniProt P08913); test: Receptor binding, [3H]-rauwolscine
T1 sequence (P08913 1-465): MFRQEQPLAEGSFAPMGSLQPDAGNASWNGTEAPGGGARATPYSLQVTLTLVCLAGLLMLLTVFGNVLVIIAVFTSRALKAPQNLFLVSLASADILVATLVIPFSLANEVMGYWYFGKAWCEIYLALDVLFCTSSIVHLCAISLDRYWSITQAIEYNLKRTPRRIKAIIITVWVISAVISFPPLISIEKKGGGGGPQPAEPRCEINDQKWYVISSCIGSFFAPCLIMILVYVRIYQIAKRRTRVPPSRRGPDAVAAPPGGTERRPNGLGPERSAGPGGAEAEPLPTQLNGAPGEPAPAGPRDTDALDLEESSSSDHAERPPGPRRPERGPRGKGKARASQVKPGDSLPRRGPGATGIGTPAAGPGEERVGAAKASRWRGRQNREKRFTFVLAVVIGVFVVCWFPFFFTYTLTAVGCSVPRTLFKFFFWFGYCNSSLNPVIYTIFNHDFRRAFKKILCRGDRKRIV
Source text: Table 3 Monoamine transporter and receptor binding affinities of pyrovalerone and NEH. | column: α2A / Receptor Binding / Ki ± SD [μM] / [^3H]-Rauwolscine

[3] = target: hSERT (Homo sapiens, UniProt P31645); test: Transporter binding, [3H]-citalopram
[4] = target: T2, adrenergic α1A receptor (Homo sapiens, UniProt P35348); test: Receptor binding, [3H]-prazosin
T2 sequence (P35348 1-466): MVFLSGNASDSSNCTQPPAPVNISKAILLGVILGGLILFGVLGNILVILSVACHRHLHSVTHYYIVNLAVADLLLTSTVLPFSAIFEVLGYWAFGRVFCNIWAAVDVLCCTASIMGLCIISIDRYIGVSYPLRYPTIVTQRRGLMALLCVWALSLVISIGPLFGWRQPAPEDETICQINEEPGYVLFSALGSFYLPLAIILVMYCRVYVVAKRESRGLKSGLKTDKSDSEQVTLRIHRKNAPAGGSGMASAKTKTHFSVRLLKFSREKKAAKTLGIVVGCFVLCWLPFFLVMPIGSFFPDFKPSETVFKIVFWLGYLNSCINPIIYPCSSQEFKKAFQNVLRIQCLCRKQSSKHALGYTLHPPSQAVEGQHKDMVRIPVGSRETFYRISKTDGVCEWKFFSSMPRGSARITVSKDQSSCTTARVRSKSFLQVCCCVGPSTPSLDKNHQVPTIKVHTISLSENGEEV

[5] = target: hDAT (Homo sapiens, UniProt Q01959); test: Transporter binding, [3H]-WIN-35,428
[6] = target: dopaminergic D2 receptor (Homo sapiens, UniProt P14416); test: Receptor binding, [3H]-spiperone
Source text: Table 3 Monoamine transporter and receptor binding affinities of pyrovalerone and NEH. | column: D2 / Receptor Binding / Ki ± SD [μM] / [^3H]-Spiperone

[7] = system: Human TAAR1; design: method as in Simmler et al. (2016); settings: ref Simmler et al. (2016); read-out: Human TAAR1 Activation Potency EC50 ± SD; cited from earlier work
[8] = target: T3, h5-HT2A receptor (Homo sapiens, UniProt P28223); design: expressed in transfected cells; host or cells: HEK293 cell preparations; settings: read-out: h5-HT2A Receptor Binding Ki ± SD; [3H]-Ketanserin; ref Rickli et al. (2015); cited from earlier work
[9] = target: T3, h5-HT2A receptor; design: expressed in transfected cells; host or cells: HEK293 cell preparations; method as in Rickli et al. (2015); settings: read-out: h5-HT2A Activation Potency EC50 ± SD; ref Rickli et al. (2015); cited from earlier work
[10] = target: T4, h5-HT2B receptor (Homo sapiens, UniProt P41595); design: method as in Rickli et al. (2015); settings: read-out: h5-HT2B Activation Potency EC50 ± SD; ref Rickli et al. (2015); cited from earlier work
T4 construct: expressed in transfected cells; host or cells: HEK293
T4 sequence (P41595 whole entry): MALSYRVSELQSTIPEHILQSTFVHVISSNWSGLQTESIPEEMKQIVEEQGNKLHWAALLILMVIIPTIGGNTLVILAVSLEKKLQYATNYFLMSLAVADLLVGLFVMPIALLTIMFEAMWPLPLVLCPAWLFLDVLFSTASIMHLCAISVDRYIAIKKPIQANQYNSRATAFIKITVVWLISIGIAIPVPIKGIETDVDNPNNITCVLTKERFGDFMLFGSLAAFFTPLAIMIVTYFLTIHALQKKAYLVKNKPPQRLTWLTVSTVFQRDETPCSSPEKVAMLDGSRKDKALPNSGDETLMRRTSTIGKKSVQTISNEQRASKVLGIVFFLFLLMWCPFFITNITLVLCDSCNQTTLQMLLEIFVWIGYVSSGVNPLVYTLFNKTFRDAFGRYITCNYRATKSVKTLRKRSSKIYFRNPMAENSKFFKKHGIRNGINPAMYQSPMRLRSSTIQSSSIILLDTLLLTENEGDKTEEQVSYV

T3 sequence (P28223 whole entry): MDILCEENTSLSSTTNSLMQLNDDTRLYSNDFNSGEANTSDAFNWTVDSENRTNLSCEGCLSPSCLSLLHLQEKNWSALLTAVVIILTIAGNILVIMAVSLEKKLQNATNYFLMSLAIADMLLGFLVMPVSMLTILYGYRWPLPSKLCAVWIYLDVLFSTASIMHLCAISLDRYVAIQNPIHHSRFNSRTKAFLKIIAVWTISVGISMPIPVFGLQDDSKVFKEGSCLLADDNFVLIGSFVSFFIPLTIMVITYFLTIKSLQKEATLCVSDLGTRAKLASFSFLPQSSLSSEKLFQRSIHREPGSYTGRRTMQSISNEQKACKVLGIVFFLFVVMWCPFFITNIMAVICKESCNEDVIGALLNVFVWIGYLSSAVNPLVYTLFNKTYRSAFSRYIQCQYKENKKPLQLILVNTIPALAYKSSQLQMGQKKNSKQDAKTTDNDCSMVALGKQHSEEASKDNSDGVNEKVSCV
hSERT, sequence (P31645 whole entry): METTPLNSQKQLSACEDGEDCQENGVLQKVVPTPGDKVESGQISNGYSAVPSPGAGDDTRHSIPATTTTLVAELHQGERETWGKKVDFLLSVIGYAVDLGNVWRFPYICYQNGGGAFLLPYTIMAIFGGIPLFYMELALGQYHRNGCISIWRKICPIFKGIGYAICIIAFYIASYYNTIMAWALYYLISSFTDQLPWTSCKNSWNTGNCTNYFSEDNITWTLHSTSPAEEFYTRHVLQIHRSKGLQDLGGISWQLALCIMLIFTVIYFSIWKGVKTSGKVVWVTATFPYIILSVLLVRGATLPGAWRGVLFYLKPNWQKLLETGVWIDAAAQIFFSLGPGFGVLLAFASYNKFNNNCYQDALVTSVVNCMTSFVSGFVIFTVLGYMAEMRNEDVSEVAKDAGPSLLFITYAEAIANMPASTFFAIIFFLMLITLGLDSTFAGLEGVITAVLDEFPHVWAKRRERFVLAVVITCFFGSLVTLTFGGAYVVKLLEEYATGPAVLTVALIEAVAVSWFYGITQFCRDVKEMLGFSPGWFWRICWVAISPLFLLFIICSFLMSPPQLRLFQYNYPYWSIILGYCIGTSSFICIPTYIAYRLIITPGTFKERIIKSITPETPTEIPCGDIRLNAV
hDAT, sequence (Q01959 whole entry): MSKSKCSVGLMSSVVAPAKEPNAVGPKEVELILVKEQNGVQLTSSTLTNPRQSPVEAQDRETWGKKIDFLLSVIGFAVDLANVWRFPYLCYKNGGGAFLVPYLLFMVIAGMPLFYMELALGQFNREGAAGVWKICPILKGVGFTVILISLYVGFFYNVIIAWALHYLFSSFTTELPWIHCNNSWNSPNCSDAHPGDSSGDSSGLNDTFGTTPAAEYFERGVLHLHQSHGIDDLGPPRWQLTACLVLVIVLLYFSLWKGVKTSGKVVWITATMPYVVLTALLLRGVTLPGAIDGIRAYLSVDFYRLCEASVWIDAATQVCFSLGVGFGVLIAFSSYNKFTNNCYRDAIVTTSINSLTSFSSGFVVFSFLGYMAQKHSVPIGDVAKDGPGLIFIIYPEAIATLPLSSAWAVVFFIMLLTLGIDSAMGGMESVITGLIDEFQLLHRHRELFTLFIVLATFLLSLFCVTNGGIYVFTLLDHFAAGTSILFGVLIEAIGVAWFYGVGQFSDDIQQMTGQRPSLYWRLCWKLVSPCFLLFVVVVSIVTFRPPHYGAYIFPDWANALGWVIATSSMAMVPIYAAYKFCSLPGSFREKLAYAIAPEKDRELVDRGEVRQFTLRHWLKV
hNET, sequence (P23975 whole entry): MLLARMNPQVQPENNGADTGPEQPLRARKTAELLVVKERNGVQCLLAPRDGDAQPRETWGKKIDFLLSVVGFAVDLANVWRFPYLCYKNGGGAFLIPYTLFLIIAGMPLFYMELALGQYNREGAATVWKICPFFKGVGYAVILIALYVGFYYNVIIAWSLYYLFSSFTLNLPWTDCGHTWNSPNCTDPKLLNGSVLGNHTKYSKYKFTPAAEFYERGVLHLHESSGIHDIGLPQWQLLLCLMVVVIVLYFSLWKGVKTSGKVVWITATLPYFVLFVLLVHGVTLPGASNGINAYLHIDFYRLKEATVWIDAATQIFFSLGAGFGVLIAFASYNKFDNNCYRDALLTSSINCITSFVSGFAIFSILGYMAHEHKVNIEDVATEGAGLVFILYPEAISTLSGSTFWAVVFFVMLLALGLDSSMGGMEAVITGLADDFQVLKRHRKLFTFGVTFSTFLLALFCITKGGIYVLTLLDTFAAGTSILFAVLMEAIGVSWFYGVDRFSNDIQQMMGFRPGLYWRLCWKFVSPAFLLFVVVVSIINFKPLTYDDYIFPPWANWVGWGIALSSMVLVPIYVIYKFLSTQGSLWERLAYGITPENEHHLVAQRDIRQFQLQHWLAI
dopaminergic D2 receptor, sequence (P14416 whole entry): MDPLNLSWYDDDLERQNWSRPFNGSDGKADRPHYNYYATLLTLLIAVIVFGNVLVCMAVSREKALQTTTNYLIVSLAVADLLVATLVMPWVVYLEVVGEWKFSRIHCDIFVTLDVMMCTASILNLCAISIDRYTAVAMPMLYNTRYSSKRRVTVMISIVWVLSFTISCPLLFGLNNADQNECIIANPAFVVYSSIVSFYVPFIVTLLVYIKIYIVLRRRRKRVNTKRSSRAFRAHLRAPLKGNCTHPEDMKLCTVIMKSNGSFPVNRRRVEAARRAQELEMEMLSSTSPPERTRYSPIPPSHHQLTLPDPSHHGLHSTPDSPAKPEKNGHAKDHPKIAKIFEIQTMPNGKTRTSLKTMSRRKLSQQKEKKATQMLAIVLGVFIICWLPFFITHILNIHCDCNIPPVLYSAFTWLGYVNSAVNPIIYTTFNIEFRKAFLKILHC

| Structure (SMILES) | Ki [1] [µM] | Ki [2] [µM] | Ki [3] [µM] | Ki [4] [µM] | Ki [5] [µM] | Ki [6] [µM] | EC50 [7] [µM] | Ki [8] [µM] | EC50 [9] [µM] | EC50 [10] [µM] |
| --- | --- | --- | --- | --- | --- | --- | --- | --- | --- | --- |
| Cc1ccc(C(=O)C(C)N2CCCC2)cc1 (stereo not drawn) [4-MePPP, 4-methyl-α-pyrrolidinopropiophenone] | 2.5 ± 0.7 | > 4.7 | > 7.4 | 2.2 ± 0.1 | 0.3 ± 0.02 | > 13 | – | – | – | – |
| CNC(C)Cc1ccc2c(c1)OCO2 (centres unmarked) [MDMA, 3,4-methylenedioxymethamphetamine, reference compound] | – | – | – | – | – | – | 35 ± 21 | 6.3 ± 2.4 | 6.1 ± 0.3 | > 20 |
| CCCC(C(=O)c1ccc2c(c1)OCO2)N1CCCC1 (centres unmarked) [MDPV, 3,4-methylenedioxypyrovalerone] | – | – | – | – | – | – | > 30 | – | – | – |
